Reference: patent US20220305115A1 (JANSSEN SCIENCES IRELAND UNLIMITED COMPANY, priority 2019, published 2022)

The compounds below were run against T1, human TLR7 (Homo sapiens, UniProt Q9NYK1) (assay: HEK-Blue human TLR7 cell SEAP reporter assay (NF-κB activation)). Details: HEK-Blue human TLR7 cells, stimulation for 20 hours, Quanti Blue read at 640 nm.
T1 construct: host or cells: HEK-Blue human TLR7 cells (HEK293-derived reporter line)
T1 sequence (Q9NYK1 27-1049): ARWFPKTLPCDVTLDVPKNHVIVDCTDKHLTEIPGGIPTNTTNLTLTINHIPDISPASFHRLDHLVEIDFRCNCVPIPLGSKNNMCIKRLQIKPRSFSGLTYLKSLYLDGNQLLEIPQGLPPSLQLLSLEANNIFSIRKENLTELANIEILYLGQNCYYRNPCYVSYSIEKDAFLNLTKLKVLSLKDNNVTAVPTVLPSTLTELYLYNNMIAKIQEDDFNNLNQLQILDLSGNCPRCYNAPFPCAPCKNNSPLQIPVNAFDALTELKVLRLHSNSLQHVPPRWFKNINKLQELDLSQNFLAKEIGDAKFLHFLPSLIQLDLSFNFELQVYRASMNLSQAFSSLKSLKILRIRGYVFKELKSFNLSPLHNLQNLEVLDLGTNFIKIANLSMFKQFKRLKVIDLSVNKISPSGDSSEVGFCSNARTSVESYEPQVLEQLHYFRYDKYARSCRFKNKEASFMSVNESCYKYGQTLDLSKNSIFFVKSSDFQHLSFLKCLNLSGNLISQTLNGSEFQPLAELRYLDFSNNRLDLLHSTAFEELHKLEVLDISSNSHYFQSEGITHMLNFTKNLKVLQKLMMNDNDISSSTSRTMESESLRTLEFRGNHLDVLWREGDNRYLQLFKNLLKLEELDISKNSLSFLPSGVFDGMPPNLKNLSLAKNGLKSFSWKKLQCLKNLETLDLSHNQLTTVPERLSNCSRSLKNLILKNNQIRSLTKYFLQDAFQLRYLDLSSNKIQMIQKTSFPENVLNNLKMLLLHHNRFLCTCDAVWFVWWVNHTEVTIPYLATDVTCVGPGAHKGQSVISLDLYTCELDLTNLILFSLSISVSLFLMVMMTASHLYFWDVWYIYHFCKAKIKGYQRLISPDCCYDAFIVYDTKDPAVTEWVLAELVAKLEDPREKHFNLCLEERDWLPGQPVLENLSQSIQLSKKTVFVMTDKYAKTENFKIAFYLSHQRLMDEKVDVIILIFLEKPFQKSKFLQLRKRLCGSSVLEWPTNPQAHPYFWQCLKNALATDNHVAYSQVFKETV
Format: cell-based
Source text: For TLR8 and TLR7 activity testing, HEK-Blue human TLR8 or TLR7 cells (Invivogen, San Diego, Calif., USA) are used, respectively. These cells are designed for studying the stimulation of human TLR8 or TLR7 by monitoring the activation of NF-κB. A SEAP (secreted embryonic alkaline phosphatase) reporter gene is placed under the control of the IFN-b minimal promoter fused to five NF-κB and AP-1-binding sites. Therefore the reporter expression is regulated by the NF-κB promoter upon stimulation of human TLR8 or TLR7 for 20 hours. The cell culture supernatant SEAP reporter activity was determined using Quanti Blue kit (Invivogen, San Diego, Ca, USA) at a wavelength of 640 nm, a detection medium that turns purple/blue in the presence of alkaline phosphatase. EC50 values were determined using Activity Base analysis (ID Business Solution, Limited).

| Compound | EC50 |
| --- | --- |
| CCCN(CCC)C(=O)C1=Cc2ccc(C3=NCc4ccccc4N3)cc2N=C(N)C1 [Example 1, 2-Amino-8-(1,4-dihydroquinazolin-2-yl)-N,N-dipropyl-3H-1-benzazepine-4-carboxamide] | > 100 µM |
| CCCN(CCC)C(=O)C1=Cc2ccc(C3=NCc4ccncc4N3)cc2N=C(N)C1 [Example 2, 2-Amino-8-(1,4-dihydropyrido[3,4-d]pyrimidin-2-yl)-N,N-dipropyl-3H-1-benzazepine-4-carboxamide] | > 100 µM |
| CCCN(CCC)C(=O)C1=Cc2ccc(C3=NCc4c(Cl)cccc4N3)cc2N=C(N)C1 [Example 5, 2-Amino-8-(5-chloro-1,4-dihydroquinazolin-2-yl)-N,N-dipropyl-3H-1-benzazepine-4-carboxamide] | > 100 µM |

Next, values leading:

| EC50 | Compound |
| --- | --- |
| > 100 µM | CCCN(CC1CC1)C(=O)C1=Cc2ccc(C3=NCc4ccccc4N3)cc2N=C(N)C1 [Example 3, 2-Amino-N-(cyclopropylmethyl)-8-(1,4-dihydroquinazolin-2-yl)-N-propyl-3H-1-benzazepine-4-carboxamide] |
| > 100 µM | CCCN(CC(C)C)C(=O)C1=Cc2ccc(C3=NCc4ccccc4N3)cc2N=C(N)C1 [Example 4, 2-Amino-8-(1,4-dihydroquinazolin-2-yl)-N-isobutyl-N-propyl-3H-1-benzazepine-4-carboxamide] |
| > 100 µM | CCCN(CCC)C(=O)C1=Cc2ccc(C3=NCc4ccc(Cl)cc4N3)cc2N=C(N)C1 [Example 6, 2-Amino-8-(7-chloro-1,4-dihydroquinazolin-2-yl)-N,N-dipropyl-3H-1-benzazepine-4-carboxamide] |
